These are literature values, as cited in PMC10323144, “Garbage in, garbage out: how reliable training data improved a virtual screening approach against SARS-CoV-2 MPro” (Frontiers in Pharmacology, 2023).

Square brackets hold non-standard residues; d marks the D form. Peptide text beside a SMILES is read from it. * marks the point of attachment. Nle = CCCC[CH](N)C(=O)O; Cbz = O=C(OCc1ccccc1)*

The subject of this series is MPro. The note with it: compiled from peer-reviewed sources (287 compounds) ref the 18 original articles; cited from earlier work.

Turning to `CC(O)(CS(=O)(=O)c1ccc(F)cc1)C(=O)Nc1ccc(C#N)c(C(F)(F)F)c1` (stereo not drawn) [Bicalutamide], the “Class (MPro activity class)” value is given as 0 (compounds with IC50 > 20 μM, percentage inhibition <80% at 20 µM or 50 μM, or percentage enzyme inhibition <50% at 10 µM were labelled as INACTIVE).
Take `CC1=C(C(=O)O)N2C(=O)[C@@H](NC(=O)[C@H](N)c3ccccc3)[C@H]2SC1` [CEPHALEXIN]: the “Class (MPro activity class)” value is 0 (compounds with IC50 > 20 μM, percentage inhibition <80% at 20 µM or 50 μM, or percentage enzyme inhibition <50% at 10 µM were labelled as INACTIVE).
Consider `CC(C)C(NC(=O)OCc1ccccc1)C(=O)NC(C=O)Cc1ccccc1` (stereo not drawn) [Calpain inhibitor III] (Cbz-Val-Phe-aldehyde; configuration not given here), for which the “Class (MPro activity class)” value is 0 (compounds with IC50 > 20 μM, percentage inhibition <80% at 20 µM or 50 μM, or percentage enzyme inhibition <50% at 10 µM were labelled as INACTIVE).
As to `CSCCC(C=O)NC(=O)C(CC(C)C)NC(=O)C(CC(C)C)NC(C)=O` (stereo not drawn) [Calpain inhibitor II] (Ac-Leu-Leu-Met-aldehyde; configuration not given here), the “Class (MPro activity class)” value was 1 (Compounds with IC50 < 10 µM or with a percentage of enzyme inhibition >50% at 10 µM were labelled as ACTIVE).
On to `CCCCC(C=O)NC(=O)C(CC(C)C)NC(=O)C(CC(C)C)NC(C)=O` (stereo not drawn) [Calpain inhibitor I] (Ac-Leu-Leu-[Nle]-aldehyde; configuration not given here), for which the “Class (MPro activity class)” value is recorded as 1 (Compounds with IC50 < 10 µM or with a percentage of enzyme inhibition >50% at 10 µM were labelled as ACTIVE).
For the molecule `CC(C)CC(C=O)NC(=O)C(NS(=O)(=O)c1ccc(F)cc1)C(C)C` (stereo not drawn) [Calpain inhibitor VI], the “Class (MPro activity class)” value is 0 (compounds with IC50 > 20 μM, percentage inhibition <80% at 20 µM or 50 μM, or percentage enzyme inhibition <50% at 10 µM were labelled as INACTIVE).
As to `CCCC(NC(=O)C(CC(C)C)NC(=O)OCc1ccccc1)C(=O)C(=O)NCc1ccccn1` (stereo not drawn) [Calpain inhibitor XII], the “Class (MPro activity class)” value is 1 (Compounds with IC50 < 10 µM or with a percentage of enzyme inhibition >50% at 10 µM were labelled as ACTIVE).
For `CN(C)C(=O)COC(=O)Cc1ccc(OC(=O)c2ccc(NC(=N)N)cc2)cc1` [Camostat], the “Class (MPro activity class)” value is recorded as 0 (compounds with IC50 > 20 μM, percentage inhibition <80% at 20 µM or 50 μM, or percentage enzyme inhibition <50% at 10 µM were labelled as INACTIVE).
Consider `CC1C=CC=CC=CC=CC=CC=CC=CC(OC2OC(C)C(O)C(N)C2O)CC(O)C(C(=O)O)C(O)CC(=O)CC(O)CC(O)CC(O)CC(=O)CCCC(=O)CC(=O)OC1C(C)CC(C)C(O)CC(=O)c1ccc(N)cc1` (stereo not drawn) [Candicidin], for which the “Class (MPro activity class)” value is given as 0 (compounds with IC50 > 20 μM, percentage inhibition <80% at 20 µM or 50 μM, or percentage enzyme inhibition <50% at 10 µM were labelled as INACTIVE).
On to `Cn1nc(C(C)(C)C)cc1C(=O)NC(Cc1cccc(Cl)c1)C(=O)NCC#N` (stereo not drawn) [Cathepsin inhibitor 1], for which the “Class (MPro activity class)” value is reported as 0 (compounds with IC50 > 20 μM, percentage inhibition <80% at 20 µM or 50 μM, or percentage enzyme inhibition <50% at 10 µM were labelled as INACTIVE).
As for `O=C(/C=C/c1ccc(O)c(O)c1)O[C@@H]1C[C@](O)(C(=O)O)C[C@@H](O)[C@H]1O` [Chlorogenic acid], the “Class (MPro activity class)” value is reported as 0 (compounds with IC50 > 20 μM, percentage inhibition <80% at 20 µM or 50 μM, or percentage enzyme inhibition <50% at 10 µM were labelled as INACTIVE).
As for `O=C(O)C1OC(Oc2cc(O)c3c(=O)cc(-c4ccccc4)oc3c2)C(O)C(O)C1O` [Chrysin-7-O-β-D-glucoronide], the “Class (MPro activity class)” value is 0 (compounds with IC50 > 20 μM, percentage inhibition <80% at 20 µM or 50 μM, or percentage enzyme inhibition <50% at 10 µM were labelled as INACTIVE).
Take `O=c1cc(-c2ccccc2)oc2cc(O)cc(O)c12` [Chrysin]: the “Class (MPro activity class)” value is on record as 0 (compounds with IC50 > 20 μM, percentage inhibition <80% at 20 µM or 50 μM, or percentage enzyme inhibition <50% at 10 µM were labelled as INACTIVE).
In the case of `O=C(C=Cc1ccc(O)c(O)c1)OC1C(O)CC(O)(C(=O)O)CC1O` (stereo not drawn) [Cryptochlorogenic acid], the “Class (MPro activity class)” value is on record as 0 (compounds with IC50 > 20 μM, percentage inhibition <80% at 20 µM or 50 μM, or percentage enzyme inhibition <50% at 10 µM were labelled as INACTIVE).
With `CC(C)CC1CN(C(=O)CCl)CCN1Cc1cccc(Cl)c1` (stereo not drawn) [DAN-LON-a5fc619e-3], the “Class (MPro activity class)” value was 1 (Compounds with IC50 < 10 µM or with a percentage of enzyme inhibition >50% at 10 µM were labelled as ACTIVE).
Regarding `O=C(CCl)N1CC2CC1CN2Cc1cccc(Cl)c1` (stereo not drawn) [DAN-LON-a5fc619e-8], the “Class (MPro activity class)” value is reported as 1 (Compounds with IC50 < 10 µM or with a percentage of enzyme inhibition >50% at 10 µM were labelled as ACTIVE).
Take `CC(NC(=O)Cc1cc(F)cc(F)c1)C(=O)NC(C(=O)OC(C)(C)C)c1ccccc1` (stereo not drawn) [DAPT (GSI-IX)]: the “Class (MPro activity class)” value is 0 (compounds with IC50 > 20 μM, percentage inhibition <80% at 20 µM or 50 μM, or percentage enzyme inhibition <50% at 10 µM were labelled as INACTIVE).
With `CCNc1ncc(C#N)cc1CN1CCN(C(=O)CCl)CC1` [DAR-DIA-fb20be43-4], the “Class (MPro activity class)” value was 1 (Compounds with IC50 < 10 µM or with a percentage of enzyme inhibition >50% at 10 µM were labelled as ACTIVE).
As for `N#Cc1cc(CN2CCN(C(=O)CCl)CC2)c2ccccc2c1` [DAR-DIA-fb20be43-6], the “Class (MPro activity class)” value is on record as 1 (Compounds with IC50 < 10 µM or with a percentage of enzyme inhibition >50% at 10 µM were labelled as ACTIVE).
Consider `COc1cc(CN2CCN(C(=O)CCl)CC2)c2ccccc2c1` [DAR-DIA-fb20be43-7], for which the “Class (MPro activity class)” value is given as 1 (Compounds with IC50 < 10 µM or with a percentage of enzyme inhibition >50% at 10 µM were labelled as ACTIVE).
In the case of `CC(O)c1cc(C(=O)N[C@@H](C)Cn2ccc(-c3ccc(C#N)c(Cl)c3)n2)[nH]n1` (stereo partly drawn) [DAROLUTAMIDE], the “Class (MPro activity class)” value is 0 (compounds with IC50 > 20 μM, percentage inhibition <80% at 20 µM or 50 μM, or percentage enzyme inhibition <50% at 10 µM were labelled as INACTIVE).
With `CC(NC(=O)CCl)c1cc(Cl)cc(-c2ccc(S(N)(=O)=O)cc2)c1` (stereo not drawn) [DAV-CRI-14a23e73-1], the “Class (MPro activity class)” value is reported as 1 (Compounds with IC50 < 10 µM or with a percentage of enzyme inhibition >50% at 10 µM were labelled as ACTIVE).
`O=C(CCl)Nc1nc2c(S(=O)(=O)NCCc3ccccc3)cccc2s1` [DUN-NEW-f8ce3686-23]: the “Class (MPro activity class)” value was 1 (Compounds with IC50 < 10 µM or with a percentage of enzyme inhibition >50% at 10 µM were labelled as ACTIVE).
On to `COC(=O)N[C@H](C(=O)N1CCC[C@H]1c1nc(-c2ccc(-c3ccc(-c4c[nH]c([C@@H]5CCCN5C(=O)[C@@H](NC(=O)OC)C(C)C)n4)cc3)cc2)c[nH]1)C(C)C` [Daclatasvir], for which the “Class (MPro activity class)” value is reported as 0 (compounds with IC50 > 20 μM, percentage inhibition <80% at 20 µM or 50 μM, or percentage enzyme inhibition <50% at 10 µM were labelled as INACTIVE).
For the molecule `CC(C)(C)OC(=O)N[C@H]1CCCCC/C=C\[C@@H]2C[C@@]2(C(=O)NS(=O)(=O)C2CC2)NC(=O)[C@@H]2C[C@@H](OC(=O)N3Cc4cccc(F)c4C3)CN2C1=O` [Danoprevir], the “Class (MPro activity class)” value is listed as 0 (compounds with IC50 > 20 μM, percentage inhibition <80% at 20 µM or 50 μM, or percentage enzyme inhibition <50% at 10 µM were labelled as INACTIVE).
For `CC(C)CN(C[C@@H](O)[C@H](Cc1ccccc1)NC(=O)O[C@H]1CO[C@H]2OCC[C@H]21)S(=O)(=O)c1ccc(N)cc1` [Darunavir], the “Class (MPro activity class)” value is listed as 0 (compounds with IC50 > 20 μM, percentage inhibition <80% at 20 µM or 50 μM, or percentage enzyme inhibition <50% at 10 µM were labelled as INACTIVE).
Take `CC(C)Nc1cccnc1N1CCN(C(=O)c2cc3cc(NS(C)(=O)=O)ccc3[nH]2)CC1` [Delavirdine]: the “Class (MPro activity class)” value was 0 (compounds with IC50 > 20 μM, percentage inhibition <80% at 20 µM or 50 μM, or percentage enzyme inhibition <50% at 10 µM were labelled as INACTIVE).
For the molecule `O=C1c2c(O)cc(O)cc2O[C@H](c2cc(O)c(O)c(O)c2)[C@H]1O` [Dihydromyricetin], the “Class (MPro activity class)” value is on record as 1 (Compounds with IC50 < 10 µM or with a percentage of enzyme inhibition >50% at 10 µM were labelled as ACTIVE).
Turning to `CC(C)CC(NC(=O)C1OC1C(=O)O)C(=O)NCCCCN=C(N)N` (stereo not drawn) [E-64], the “Class (MPro activity class)” value is recorded as 0 (compounds with IC50 > 20 μM, percentage inhibition <80% at 20 µM or 50 μM, or percentage enzyme inhibition <50% at 10 µM were labelled as INACTIVE).
As to `O=C(Cc1cccc(Cl)c1)Nc1cccnc1` [EDG-MED0da5ad92-2], the “Class (MPro activity class)” value is on record as 0 (compounds with IC50 > 20 μM, percentage inhibition <80% at 20 µM or 50 μM, or percentage enzyme inhibition <50% at 10 µM were labelled as INACTIVE).
Take `Cc1ccc(NC(=O)Cc2cccc(Cl)c2)cn1` [EDG-MED0da5ad92-13]: the “Class (MPro activity class)” value is 0 (compounds with IC50 > 20 μM, percentage inhibition <80% at 20 µM or 50 μM, or percentage enzyme inhibition <50% at 10 µM were labelled as INACTIVE).
For the molecule `Cc1ncccc1NC(=O)Cc1cccc(Cl)c1` [EDG-MED0da5ad92-14], the “Class (MPro activity class)” value is reported as 0 (compounds with IC50 > 20 μM, percentage inhibition <80% at 20 µM or 50 μM, or percentage enzyme inhibition <50% at 10 µM were labelled as INACTIVE).
Turning to `C#Cc1cccc(Nc2ncnc3cc(OCCOC)c(OCCOC)cc23)c1` [ERLOTINIB], the “Class (MPro activity class)” value is 0 (compounds with IC50 > 20 μM, percentage inhibition <80% at 20 µM or 50 μM, or percentage enzyme inhibition <50% at 10 µM were labelled as INACTIVE).
As for `COc1cc2c(cc1Cc1cccc(Cl)c1F)c(=O)c(C(=O)O)cn2[C@H](CO)C(C)C` [Elvitegravir], the “Class (MPro activity class)” value is given as 0 (compounds with IC50 > 20 μM, percentage inhibition <80% at 20 µM or 50 μM, or percentage enzyme inhibition <50% at 10 µM were labelled as INACTIVE).
Regarding `Cc1cc(C#N)cc(C)c1Oc1nc(Nc2ccc(C#N)cc2)nc(N)c1Br` [Etravirine], the “Class (MPro activity class)” value is on record as 0 (compounds with IC50 > 20 μM, percentage inhibition <80% at 20 µM or 50 μM, or percentage enzyme inhibition <50% at 10 µM were labelled as INACTIVE).
Regarding `C[C@@H]1O[C@@H](OC[C@H]2O[C@@H](OCCc3ccc(O)c(O)c3)[C@H](O)[C@@H](O)[C@@H]2OC(=O)/C=C/c2ccc(O)c(O)c2)[C@H](O)[C@H](O)[C@H]1O` [Forsythoside A], the “Class (MPro activity class)” value is listed as 1 (Compounds with IC50 < 10 µM or with a percentage of enzyme inhibition >50% at 10 µM were labelled as ACTIVE).
